For series [1], the target named is Gamma-secretase. The series can be described thus: Modulation of gamma secretase in human H4 cells assessed as inhibition of amyloid beta (1 to 42) production. It counts as cell-based.
A further series concerns the target Cytochrome P450 3A4 (Homo sapiens, UniProt P08684). In words: Inhibition of CYP3A4 (unknown origin) by fluorescence assay.
For series [2], the species on record is Mus musculus. The conditions noted are these: Brain, 30 mg/kg.
Series [3] concerns the target Gamma-secretase. In words: Modulation of gamma secretase in human H4 cells transfected with APP751 SWE clone 8.20 mutant assessed as inhibition of amyloid beta (1 to 42) production after 19 hrs. It counts as cell-based.
In series [4] the target is Voltage-gated inwardly rectifying potassium channel KCNH2 (Homo sapiens, UniProt Q12809). In words: Inhibition of human ERG by thallium flux assay.
Chain of Voltage-gated inwardly rectifying potassium channel KCNH2 (Q12809 whole entry): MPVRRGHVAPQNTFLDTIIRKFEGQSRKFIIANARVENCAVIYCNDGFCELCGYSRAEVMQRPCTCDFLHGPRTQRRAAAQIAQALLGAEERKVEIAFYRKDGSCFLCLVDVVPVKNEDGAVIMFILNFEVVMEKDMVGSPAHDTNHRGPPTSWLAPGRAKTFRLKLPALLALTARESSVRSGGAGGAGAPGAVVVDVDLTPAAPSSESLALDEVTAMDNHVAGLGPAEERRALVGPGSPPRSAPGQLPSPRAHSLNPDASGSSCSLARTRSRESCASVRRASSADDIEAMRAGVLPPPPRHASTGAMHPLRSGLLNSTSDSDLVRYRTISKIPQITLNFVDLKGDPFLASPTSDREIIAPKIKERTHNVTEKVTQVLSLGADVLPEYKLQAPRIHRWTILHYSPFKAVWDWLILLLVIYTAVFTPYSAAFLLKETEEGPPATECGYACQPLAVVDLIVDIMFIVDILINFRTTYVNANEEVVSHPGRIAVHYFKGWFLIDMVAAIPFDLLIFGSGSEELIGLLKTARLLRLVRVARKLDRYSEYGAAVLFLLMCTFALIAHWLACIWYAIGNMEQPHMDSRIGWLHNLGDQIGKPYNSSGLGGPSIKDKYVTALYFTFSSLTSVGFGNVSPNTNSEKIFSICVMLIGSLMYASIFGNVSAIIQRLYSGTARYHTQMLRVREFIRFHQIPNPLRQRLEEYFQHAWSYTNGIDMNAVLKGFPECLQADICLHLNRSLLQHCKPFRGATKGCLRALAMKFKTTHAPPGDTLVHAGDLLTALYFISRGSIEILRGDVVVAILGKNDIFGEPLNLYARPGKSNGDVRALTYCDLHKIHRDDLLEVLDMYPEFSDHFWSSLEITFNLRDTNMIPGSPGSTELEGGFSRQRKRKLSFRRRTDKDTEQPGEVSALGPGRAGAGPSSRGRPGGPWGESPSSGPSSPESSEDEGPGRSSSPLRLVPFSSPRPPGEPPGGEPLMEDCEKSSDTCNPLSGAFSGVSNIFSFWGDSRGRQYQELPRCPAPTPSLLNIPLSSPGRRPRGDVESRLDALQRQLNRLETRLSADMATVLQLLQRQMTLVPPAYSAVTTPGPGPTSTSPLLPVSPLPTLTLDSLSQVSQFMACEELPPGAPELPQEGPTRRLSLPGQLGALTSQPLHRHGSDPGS
In the next series the test system is Liver microsome. The series can be described thus: Drug metabolism in human liver microsomes. It counts as ADME. On the technique in general: Microsomes from liver hold many membrane-bound enzymes, among them those of drug oxidation.
A short description of series [5]: Plasma protein binding in human. It counts as ADME, cell-free. The conditions noted are these: read-out: PPB.
Series [6] is described as follows: Plasma protein binding in mouse. It counts as ADME, cell-free. The conditions noted are these: read-out: PPB.
Series [7] is described as follows: Plasma concentration in 3x transgenic Alzheimer's disease mouse model at 1 mg/kg, po measured after 3 hrs. It counts as ADME, organism-based. Conditions: 3x transgenic Alzheimer's disease model.
The nature of series [8]: Plasma concentration in 3x transgenic Alzheimer's disease mouse model at 3 mg/kg, po measured after 3 hrs. It counts as ADME, organism-based. The conditions noted are these: 3x transgenic Alzheimer's disease model.
The nature of series [9]: Plasma concentration in 3x transgenic Alzheimer's disease mouse model at 10 mg/kg, po measured after 3 hrs. It counts as ADME, organism-based. The conditions noted are these: 3x transgenic Alzheimer's disease model.
Series [10] can be described thus: Plasma concentration in 3x transgenic Alzheimer's disease mouse model at 30 mg/kg, po measured after 3 hrs. Conditions: 3x transgenic Alzheimer's disease model. It counts as ADME, organism-based.
Series [11] is described as follows: Plasma concentration in 3x transgenic Alzheimer's disease mouse model at 100 mg/kg, po measured after 3 hrs. It counts as ADME, organism-based. The conditions noted are these: 3x transgenic Alzheimer's disease model.
Series [12] in a line: Total drug level in 3x transgenic Alzheimer's disease mouse brain at 30 mg/kg, po measured after 3 hrs. It counts as ADME, organism-based. Conditions: 3x transgenic Alzheimer's disease model, read-out: Drug uptake.
The subject of series [13] is Mus musculus. In words: Effect on total amyloid beta production in 3x transgenic mouse model of Alzheimer's disease at 1 to 100 mg/kg, po measured after 3 hrs by ELISA. It counts as ADME, organism-based. Conditions: in vivo. For orientation: An ELISA detects its analyte on a solid surface through an enzyme-linked reagent.
Series [14] in a line: Ratio of total drug level in brain to plasma in 3x transgenic mouse model of Alzheimer's disease at 30 mg/kg, po measured after 3 hrs. It counts as ADME, organism-based. Conditions: 3x transgenic Alzheimer's disease model, read-out: BPR.
Series [15] deals with Mus musculus. The series can be described thus: Anti-alzheimer activity in 3x transgenic mouse model of Alzheimer's disease assessed as amyloid beta (1 to 42) level in brain at 1 mg/kg, po measured after 3 hrs by ELISA relative to control. It counts as functional.
Series [16] has as its system Mus musculus. In words: Anti-alzheimer activity in 3x transgenic mouse model of Alzheimer's disease assessed as amyloid beta (1 to 42) level in brain at 3 mg/kg, po measured after 3 hrs by ELISA relative to control. It counts as functional.
Series [17] has as its system Mus musculus. The series can be described thus: Anti-alzheimer activity in 3x transgenic mouse model of Alzheimer's disease assessed as amyloid beta (1 to 42) level in brain at 10 mg/kg, po measured after 3 hrs by ELISA relative to control. It counts as functional.
The subject of series [18] is Mus musculus. In words: Anti-alzheimer activity in 3x transgenic mouse model of Alzheimer's disease assessed as amyloid beta (1 to 42) level in brain at 30 mg/kg, po measured after 3 hrs by ELISA relative to control. It counts as functional.
In series [19] the test system is Mus musculus. In words: Anti-alzheimer activity in 3x transgenic mouse model of Alzheimer's disease assessed as amyloid beta (1 to 42) level in brain at 100 mg/kg, po measured after 3 hrs by ELISA relative to control. It counts as functional.

The source of these data is ChEMBL document CHEMBL3769328, “Design and optimization of tricyclic gamma-secretase modulators” (Bioorg Med Chem Lett, 2016).

The source made the active and inactive calls. The calls are words filed in the database; no cut-off is given here.

Chain of Cytochrome P450 3A4 (P08684 whole entry): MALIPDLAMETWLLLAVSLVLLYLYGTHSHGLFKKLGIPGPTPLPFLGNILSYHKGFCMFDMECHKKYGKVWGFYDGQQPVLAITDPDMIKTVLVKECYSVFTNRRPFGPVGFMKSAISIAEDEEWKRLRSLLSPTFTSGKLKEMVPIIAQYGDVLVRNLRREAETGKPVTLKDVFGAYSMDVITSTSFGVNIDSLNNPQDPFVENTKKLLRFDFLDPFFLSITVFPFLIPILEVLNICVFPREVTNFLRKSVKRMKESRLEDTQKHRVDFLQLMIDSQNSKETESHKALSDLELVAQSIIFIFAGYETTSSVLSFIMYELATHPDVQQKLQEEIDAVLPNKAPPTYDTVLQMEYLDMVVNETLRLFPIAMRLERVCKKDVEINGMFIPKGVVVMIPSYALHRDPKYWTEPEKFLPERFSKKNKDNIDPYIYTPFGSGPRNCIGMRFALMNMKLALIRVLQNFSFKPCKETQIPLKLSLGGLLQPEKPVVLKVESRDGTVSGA

In general, IC50 refers to the concentration at which inhibition is half-maximal. Consider `N#Cc1ccc2c(c1)CCc1sc(Cc3ccccc3)nc1N2`, for which the IC50 at Gamma-secretase [1] (read-out: IC50) amounted to 1200 nM.
With `COc1ccc(Cc2nc3c(n2C)CCc2cc(-c4ccnc(C)c4)ccc2C3=O)cc1`, the IC50 at Gamma-secretase [1] (read-out: IC50) amounted to 380 nM; at Cytochrome P450 3A4 it was 300 nM.
Consider `Cc1cn(-c2ccc3c(c2)NC(=O)c2ccc(Cc4ccccc4)nc2N3)cn1`, for which the values for the IC50 at Gamma-secretase [1] (read-out: IC50) and against Cytochrome P450 3A4 were 50 nM and 150 nM, respectively. Also, in the series listed under Mus musculus [2], the inhibition result was “inactive”.
As for `Cc1cn(-c2ccc3c(c2)CCc2sc(Cc4ccc(F)cc4)nc2N3)cn1`, at Gamma-secretase [1] (read-out: IC50), the IC50 stood at 20 nM.
As for `CNc1nc(Nc2ccc(-n3cncn3)c(OC)c2)nc(-c2ccccc2)n1`, the IC50 on Gamma-secretase [3] is 180 nM.
As to `COc1ccc(Cc2nc3c(o2)CCc2cc(-c4ccnc(C)c4)ccc2C3=O)cc1`, the IC50 at Gamma-secretase [1] (read-out: IC50) and against Cytochrome P450 3A4 was 300 nM in each case.
Consider `CNc1nc(Cc2ccccc2)nc(Nc2ccc(-n3cnc(C)c3)c(OC)c2)n1`, for which the IC50 on Gamma-secretase [3] stood at 29 nM.
Consider `Cc1cn(-c2ccc3c(c2)CCc2ccc(Cc4ccc(F)cc4)nc2C3=O)cn1`, for which the concentration for half-maximal inhibition (IC50) at Gamma-secretase [1] (read-out: IC50) was found to be 1000 nM; at Cytochrome P450 3A4 it was 300 nM.
Take `Cc1cncn1-c1ccc2c(c1)CCc1sc(Cc3ccc(F)cc3)nc1N2`: the IC50 at Gamma-secretase [1] (read-out: IC50) was determined as 1800 nM.
As to `Cc1ncn(-c2ccc3c(c2)CCc2cnn(Cc4ccccc4)c2N3)n1`, the IC50 result with Gamma-secretase [1] is on record as “Not Active”.
With `Cc1cc(-c2ccc3c(c2)CCc2sc(Cc4ccc(F)c(F)c4)nc2N3)ccn1`, at Gamma-secretase [1] (read-out: IC50), the IC50 was 120 nM.
`Cc1cn(-c2cc3c(cc2F)Nc2nc(Cc4ccccc4)ccc2C(=O)N3)cn1`: the IC50 at Gamma-secretase [1] (read-out: IC50) worked out at 820 nM; at Cytochrome P450 3A4 it was 30 nM.
Regarding `CC(c1ccccc1)c1ccc2c(n1)Nc1ccc(-n3cnc(Cl)c3)cc1NC2=O` (racemic), the values for the IC50 at Gamma-secretase [1] (read-out: IC50) and against Cytochrome P450 3A4 were 200 nM and above 13000 nM, respectively.
As to `Cc1ncn(-c2ccc3c(c2)CCc2sc(Cc4ccccc4)nc2N3)n1`, at Gamma-secretase [1] (read-out: IC50), the IC50 turned out to be 140 nM.
With `O=C1Nc2cc(-n3cnc(Cl)c3)ccc2Nc2nc(Cc3ccccc3)ccc21`, the figures for the IC50 at Gamma-secretase [1] (read-out: IC50) and on Cytochrome P450 3A4 were 190 nM and above 13000 nM, respectively.
For `Cc1cc(-c2ccc3c(c2)CCc2sc(Cc4ccccc4)nc2N3)ccn1`, the IC50 on Gamma-secretase [1] (read-out: IC50) is 50 nM.
With `Cc1cn(-c2ccc3c(c2)CCc2sc(Cc4ccccc4)nc2N3)cn1`, in series [4], the “inhibition (INH)” value is “Not Active”. In addition, the figures for the IC50 on Gamma-secretase [1] (read-out: IC50) and against Cytochrome P450 3A4 were 35 nM and 700 nM, respectively. In the series with Liver microsome, this compound came in with a Drug metabolism of 0.035 nmol/min/mg. For the same compound, the fraction unbound in series [5] and in [6] was below 0.002 in each case. The concentration at 3 h in [7] was 0.21 µM; in series [8], 0.48 µM; in series [9], 3.8 µM; in [10] it was 8 µM; in [11] it was 25 µM; in series [12] it was 8.9 µM. The Activity entry with Mus musculus [13] was “Non-toxic”; with Mus musculus [15] it was 110%; with Mus musculus [16] it was 100%; in the series with Mus musculus [17] it was 70%; with Mus musculus [18], 60%; in the series on Mus musculus [19], 50%. The Kp at 3 h in [14] worked out at 1.1.
Turning to `Cc1ncn(-c2ccc3c(c2)NC(=O)c2ccc(Cc4ccccc4)nc2N3)n1`, the IC50 at Gamma-secretase [1] (read-out: IC50) was 460 nM; on Cytochrome P450 3A4 it was 2000 nM.
For the compound `Clc1cn(-c2ccc3c(c2)CCc2sc(Cc4ccccc4)nc2N3)cn1`, the IC50 on Gamma-secretase [1] (read-out: IC50) was 140 nM.
Consider `Cc1cc(-c2ccc3c(c2)CCc2sc(Cc4ccc(F)cc4)nc2N3)ccn1`, for which, on Gamma-secretase [1] (read-out: IC50), the IC50 was found to be 80 nM.
As to `COc1ccc(Cc2nc3c(n2C)CCc2cc(-n4cnc(C)c4)ccc2C3=O)cc1`, the IC50 at Gamma-secretase [1] (read-out: IC50) turned out to be 1100 nM.
For the compound `Cc1cn(-c2ccc3c(c2)NC(=O)c2ccc(C(C)c4ccccc4)nc2N3)cn1` (racemic), the values for the IC50 at Gamma-secretase [1] (read-out: IC50) and against Cytochrome P450 3A4 were 100 nM and 200 nM, respectively.
Take `Clc1cn(-c2ccc3c(c2)CCc2cnn(Cc4ccccc4)c2N3)cn1`: the IC50 result in the series on Gamma-secretase [1] is on record as “Not Active”.
For `Clc1cn(-c2ccc3c(c2)CCc2cn(Cc4ccccc4)nc2N3)cn1`, the IC50 at Gamma-secretase [1] (read-out: IC50) came out at 40 nM; against Cytochrome P450 3A4, 300 nM.
Consider `Cc1ncn(-c2ccc3c(c2)CCc2cn(Cc4ccccc4)nc2N3)n1`, for which the IC50 turned out to be 180 nM at Gamma-secretase [1] (read-out: IC50) and 300 nM against Cytochrome P450 3A4.
